Reference: US5834461A, “Tricyclic benzazepine vasopressin antagonists” (American Cyanamid Company, priority 1997, dated 1998)

How the values were obtained:
vasopressin V2 = test: Vasopressin V2 Antagonist Activity in Conscious Hydrated Rats (diuretic effect); format: in vivo, normal Sprague-Dawley rats; conditions: AVP 0.4 μg/kg i.p.
Outline: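 Conscious rats were dosed orally at 0.1–100 mg/kg, and AVP 0.4 μg/kg i.p. in peanut oil followed 1 h later. Urine volume, osmolality and Na/K/Cl were compared against AVP-treated controls, with non-AVP rats as water-loading controls.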

[1] = target: T1, rat kidney medullary V2 receptors (Rattus norvegicus, UniProt Q00788); test: Binding Assay to Rat Kidney Medullary V2 Receptors; conditions: for IC50: rat kidney medullary V2; for inhibition at 10 µM: rat kidney, read-out: V2, % at concentration in brackets
T1 construct: Medullary tissues from rat kidneys are dissected out; from tissue; host or cells: rat kidney medulla membranes
Outline: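 Competition binding: [3H]AVP at 0.8 nM, test compounds from 50% DMSO, and membranes from rat kidney medulla, left 120 min on the bench. Filtration then liquid scintillation counting measured bound ligand; 1.0 μM unlabeled ligand set non-specific binding.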

[2] = target: vasopressin V1 receptor (rat liver plasma membranes) (Rattus norvegicus, UniProt P30560); test: Binding Assay to Rat Hepatic V1 Receptors; conditions: for IC50: rat hepatic V1; for inhibition at 10 µM: 2 h, rat hepatic, read-out: V1, % at concentration in brackets
[3] = target: T2, oxytocin receptors (rat uterus membranes) (Rattus norvegicus, UniProt P70536); test: Oxytocin Receptor Binding; parameters: species or system female Sprague-Dawley rats
T2 construct: The resulting pellet containing the oxytocin receptors is resuspended; from tissue; host or cells: uterus membranes of DES-treated female Sprague-Dawley rats
T2 sequence (P70536 1-388): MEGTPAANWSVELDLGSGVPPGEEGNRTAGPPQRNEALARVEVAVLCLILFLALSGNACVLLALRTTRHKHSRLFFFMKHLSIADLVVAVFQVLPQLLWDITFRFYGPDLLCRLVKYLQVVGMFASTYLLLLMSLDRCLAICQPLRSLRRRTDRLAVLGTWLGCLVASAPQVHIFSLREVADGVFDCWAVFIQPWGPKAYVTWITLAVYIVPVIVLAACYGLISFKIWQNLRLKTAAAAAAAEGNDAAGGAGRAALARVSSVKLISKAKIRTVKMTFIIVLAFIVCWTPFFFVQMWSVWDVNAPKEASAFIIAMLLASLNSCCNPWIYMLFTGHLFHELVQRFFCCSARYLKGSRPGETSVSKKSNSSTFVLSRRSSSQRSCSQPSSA
Method: Female Sprague-Dawley rats weighing approximately 200-250 g are injected intramuscularly (i.m.) with 0.3 mg/kg of body weight of diethylstilbestrol (DES). The rats are sacrificed 18 hours later under pentobarbital anesthesia. The uteri are dissected out, cleaned of fat and connective tissues and rinsed in 50 ml of normal saline. The tissue pooled from six rats is homogenized in 50 ml of […] Tris.HCl, containing 0.5 mM dithiothreitol and 1.0 mM EDTA, adjusted to pH 7.4, using a polytron at setting 6 with three passes of 10 sec each. The homogenate is passed through two (2) layers of cheesecloth and the filtrate centrifuged at 1000×g for 10 min. The clear supernatant is removed and recentrifuged at 165,000×g for 30 min. The resulting pellet containing the oxytocin receptors is resuspended in 50.0 mM Tris.HCl containing 5.0 mM MgCl2 at pH 7.4, to give a protein concentration of 2.5 mg/ml of tissue suspension. This preparation is used in subsequent binding assays with [^3 H]Oxytocin.
Binding of 3,5-[^3 H]Oxytocin ([^3 H]OT) to its receptors is done in microtiter plates using [^3 H]OT, at various concentrations, in an assay buffer of 50.0 mM Tris.HCl, pH 7.4 and containing 5.0 mM MgCl2, and a mixture of protease inhibitors: BSA, 0.1 mg; aprotinin, 1.0 mg; 1,10-phenanthroline, 2.0 mg; […], 10.0 mg; and PMSF, 0.3 mg per 100 ml of buffer solution. Non-specific binding is determined in the presence of 1.0 uM unlabeled OT. The binding reaction is terminated after 60 min., at 22° C., by rapid filtration through glass fiber filters using a Brandel® cell harvester (Biomedical Research and Development Laboratories, Inc., Gaithersburg, Md.). Competition experiments are conducted at equilibrium using 1.0 nM [^3 H]OT and varying the concentration of the displacing agents. The concentrations of agent displacing 50% of [^3 H]OT at its sites (IC50) are calculated by a computer assisted LUNDON-2 program (LUNDON SOFTWARE INC., Ohio, USA).

vasopressin V1 = test: Vasopressin V1 Antagonist Activity in Conscious Rats (vasopressin vasopressor response); format: in vivo, rat (spontaneously hypertensive rats); conditions: 30 mg/kg i.v.
Outline: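 Conscious rats had the ventral caudal tail artery cannulated into the lower abdominal aorta under local procaine anesthesia, plus a caudal vein cannula for intravenous dosing. Pulsatile blood pressure was recorded via a Statham P23Db transducer. Vasopressor responses to vasopressin injections were measured before and after compound dosing, with percent antagonism calculated relative to the pre-drug response taken as 100%.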

[4] = target: T3, vasopressin V1 receptor subtype in human platelet membranes (Homo sapiens, UniProt P37288); test: Binding to Vasopressin V1 Receptor Subtype in Human Platelet Membranes; conditions: human platelet V1 (*)
T3 construct: tissue Hudson Valley Blood Services; host or cells: human blood platelets (frozen platelet rich plasma)
Method: (a) Platelet Membrane Preparation:
Frozen platelet rich plasma (PRP), received from the Hudson Valley Blood Services, are thawed to room temperature. (Platelet Source: Hudson Valley Blood Services, Westchester Medical Center, Valhalla, N.Y.). The tubes containing the PRP are centrifuged at 16,000×g for 10 min. at 4° C. and the supernatant fluid discarded. The platelets resuspended in an equal volume of 50.0 mM Tris.HCl, pH 7.5 containing 120 mM NaCl and 20.0 mM EDTA. The suspension is recentrifuged at 16,000×g for 10 min. This washing step is repeated one more time. The wash discarded and the lysed pellets homogenized in low ionic strength buffer of Tris.HCl, 5.0 mM, pH 7.5 containing 5.0 mM EDTA. The homogenate is centrifuged at 39,000×g for 10 min. The resulting pellet is resuspended in Tris.HCl buffer, 70.0 mM, pH 7.5 and recentrifuged at 39,000×g for 10 min. The final pellet is resuspended in 50.0 mM Tris.HCl buffer pH 7.4 containing 120 mM NaCl and 5.0 mM KCl to give 1.0-2.0 mg protein per ml of suspension.
(b) Binding to Vasopressin V1 Receptor Subtype in Human Platelet Membranes:
In wells of a 96 well format microtiter plate, add 100 μl of 50.0 mM Tris.HCl buffer containing 0.2% BSA and a mixture of protease inhibitors (aprotinin, leupeptin etc.). Then add 20 μl of [^3 H]Ligand (Manning or Arg^8 Vasopressin), to give final concentrations ranging from 0.01 to 10.0 nM. Initiate the binding by adding 80.0 μl of platelet suspension (approx. 100 μg protein). Mix all reagents by pipetting the mixture up and down a few times. Non specific binding is measured in the presence of 1.0 μM of unlabeled ligand (Manning or Arg^8 Vasopressin). Let the mixture stand undisturbed at room temperature for ninety (90) min. Upon this time, rapidly filter off the incubate under vacuum suction over GF/B filters, using a Brandel Harvester. The radioactivity caught on the filter disks is determined by the addition of liquid scintillant and counting in a liquid scintillator.

vasopressin V1 receptor (rat liver plasma membranes), sequence (P30560 whole entry): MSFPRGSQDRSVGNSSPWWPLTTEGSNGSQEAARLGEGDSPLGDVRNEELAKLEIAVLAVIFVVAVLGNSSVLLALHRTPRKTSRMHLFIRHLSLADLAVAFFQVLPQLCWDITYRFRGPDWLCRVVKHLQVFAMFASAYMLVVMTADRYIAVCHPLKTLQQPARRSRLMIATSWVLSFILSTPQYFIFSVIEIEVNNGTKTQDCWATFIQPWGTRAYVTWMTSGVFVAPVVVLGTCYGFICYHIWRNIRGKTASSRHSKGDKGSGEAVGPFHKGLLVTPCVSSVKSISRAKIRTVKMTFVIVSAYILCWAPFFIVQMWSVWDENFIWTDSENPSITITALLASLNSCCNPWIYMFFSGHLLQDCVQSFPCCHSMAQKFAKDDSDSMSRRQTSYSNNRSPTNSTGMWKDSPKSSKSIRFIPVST
T1 sequence (Q00788 whole entry): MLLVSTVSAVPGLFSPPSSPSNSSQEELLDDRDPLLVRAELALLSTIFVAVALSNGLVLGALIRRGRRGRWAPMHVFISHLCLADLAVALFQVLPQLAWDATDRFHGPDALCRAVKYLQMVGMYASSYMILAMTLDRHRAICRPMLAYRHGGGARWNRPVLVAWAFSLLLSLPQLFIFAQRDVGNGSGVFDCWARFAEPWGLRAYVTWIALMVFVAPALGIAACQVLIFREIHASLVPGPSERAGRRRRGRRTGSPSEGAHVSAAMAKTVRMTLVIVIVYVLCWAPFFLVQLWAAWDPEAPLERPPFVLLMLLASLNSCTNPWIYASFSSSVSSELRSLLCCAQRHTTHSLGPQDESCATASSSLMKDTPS
T3 sequence (P37288 whole entry): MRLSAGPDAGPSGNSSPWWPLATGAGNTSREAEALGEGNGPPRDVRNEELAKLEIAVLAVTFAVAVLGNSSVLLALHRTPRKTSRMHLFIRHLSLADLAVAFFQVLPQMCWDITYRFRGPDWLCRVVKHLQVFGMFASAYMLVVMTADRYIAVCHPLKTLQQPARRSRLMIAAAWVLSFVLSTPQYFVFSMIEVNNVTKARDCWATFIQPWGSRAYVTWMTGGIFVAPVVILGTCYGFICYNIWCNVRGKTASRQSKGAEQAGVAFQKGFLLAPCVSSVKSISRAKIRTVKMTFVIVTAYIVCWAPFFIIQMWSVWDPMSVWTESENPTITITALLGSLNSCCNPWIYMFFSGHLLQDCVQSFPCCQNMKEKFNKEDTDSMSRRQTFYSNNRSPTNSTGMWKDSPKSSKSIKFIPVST

IC50 [1] [nM] | IC50 [2] [nM] | inhibition at 10 µM [3] [%] | inhibition at 10 µM [1] [%] | inhibition at 10 µM [2] [%] | IC50 ([3]; second part of Table V) [nM] | Structure (SMILES) | also measured
33 | 160 | 71 |  |  |  | Cc1cccc(C(=O)Nc2ccc(C(=O)N3Cc4ccccc4Cc4ccccc43)cc2)c1C [Example 11, N-[4-[(6,11-Dihydro-5H-dibenz[b,e]azepin-5-yl)carbonyl]phenyl]-2,3-dimethylbenzamide] | Osmolality (vasopressin V2; 30 mg/kg orally): 1114 ± 55 mOsm/kg; Urine Volume (vasopressin V2; 30 mg/kg orally): 9.7 ± 0.6 ml/4 hrs.; IC50 ([3]; first part of Table V): 4400 nM
 |  | 38 | 88 | 61 |  | O=C(Nc1ccc(C(=O)N2Cc3ccccc3Cc3ccccc32)cc1)c1cc(Cl)cc(Cl)c1Cl [Example 249, N-[4-[(6,11-Dihydro-5H-dibenz[b,e]azepin-5-yl)-carbonyl]phenyl]-2,3 5-trichlorobenzamide] | 
 |  | 15 | 77 | 62 |  | O=C(Nc1ccc(C(=O)N2Cc3ccccc3Cc3ccccc32)cc1)c1ccc(Cl)c(Cl)c1 [Example 250, N-[4-[(6,11-Dihydro-5H-dibenz[b,e]azepin-5-yl)-carbonyl]phenyl]-3,4-dichlorobenzamide] | Osmolality (vasopressin V2; 30 mg/kg orally): 1378 mOsm/kg; Urine Volume (vasopressin V2; 30 mg/kg orally): 6.5 ml/4 hrs.
37 | 100 | 95 |  |  |  | Cc1c(F)cccc1C(=O)Nc1ccc(C(=O)N2Cc3ccccc3Cc3ccccc32)cc1 [Example 254, N-(4-[(6,11-Dihydro-5H-dibenz[b,e]azepin-5-yl)-carbonyl]phenyl]-2-methyl-3-fluorobenzamide] | IC50 ([3]; first part of Table V): 1900 nM; MAX % Inhibition (vasopressin V1): 74%; Time of max % inhibition (vasopressin V1): 60 min
54 | 100 | 47 |  |  |  | O=C(Nc1ccc(C(=O)N2Cc3ccccc3Cc3ccccc32)c(Cl)c1)c1ccc(Cl)cc1Cl [Example 256, N-[4-[(6,11-Dihydro-5H-dibenz[b,e]azepin-5-yl)-carbonyl]-3-chlorophenyl]-2,4-dichlorobenzamide] | IC50 ([3]; first part of Table V): 6500 nM
 |  | 15 |  |  |  | Cc1ccccc1COC(=O)c1ccc(C(=O)N2Cc3ccccc3Cc3ccccc32)cc1 [Example 266, (2-Methylphenyl)methyl 4-[(6,11-dihydro-5H-dibenz[b,e]azepin-5-yl)carbonyl)benzoate] | Osmolality (vasopressin V2; 10 mg/kg orally): 1186 mOsm/kg; Urine Volume (vasopressin V2; 10 mg/kg orally): 4.3 ml/4 hrs.; MAX % Inhibition (vasopressin V1): 21%; Time of max % inhibition (vasopressin V1): 120 min
 |  | 2 | 81 | 99 |  | Cc1ccccc1C(=O)Nc1ccc(C(=O)N2CCc3cnoc3-c3ccccc32)cc1 [Example 345, N-[4-[(4,5-Dihydro-6H-isoxazolo[4,5-d][1]benzazepin-6-yl)carbonyl]phenyl]-2-methylbenzamide] | 
 |  | 33 | 29 | 87 |  | O=C(c1ccc(NS(=O)(=O)c2ccccc2Cl)cc1)N1Cc2ccccc2Cc2ccccc21 [Example 450, 5-[4-[[(2-Chlorophenyl)sulfonyl]amino]benzoyl]-6,11-dihydro-5H-dibenz [b,e]azepine] | 
 |  | 78 | 33 | 64 | 2500 | CN(C)CC(=O)Nc1ccc(C(=O)N2Cc3ccccc3Cc3ccccc32)cc1 [Example 454] | 
5.3 | 1300 |  |  |  | 275 | Cc1c(F)cccc1C(=O)Nc1ccc(C(=O)N2CCc3c[nH]nc3-c3ccccc32)c(Cl)c1 [Example 582] | 
40 | 82 | 95 |  |  | 330 | O=C(Nc1ccc(C(=O)N2CCc3c[nH]nc3-c3ccccc32)cc1)c1ccc(Cl)cc1Cl [Example 583, N-[4-[(4,5-Dihydropyrazolo[4,3-d][1]benzazepin-6(2H)-yl)carbonyl]phenyl]-2,4-dichlorobenzamide] | 
32 |  | 99 |  |  | 250 | Cc1ccccc1C(=O)Nc1ccc(C(=O)N2CCc3c[nH]nc3-c3ccccc32)cc1 [Example 585, N-[4-[(4.5-Dihydropyrazolo[4.3-d][1]benzaze-in-6(2H)-yl)carbonyl]phenyl]-2-methylbenzamide] | IC50 [4]: 12 nM
